Test results taken from PubChem BioAssay (NCI).
Values joined by “and” are separate entries in the source; they are usually repeats but may differ in a detail not shown here. Equal entries are not always repeated.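 Step 1: Grow cells in 96-well plates. Step 2: Expose to compound for 48 hours at 5 concentrations. Step 3: Interpolate endpoints linearly; if unreached, use highest concentration. GI50 marks 50% less growth. TGI is the concentration that stops growth completely.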

What was measured:
Experiment in all cases: growth of human tumour cells (NCI), 48 h
[1] = test system: HCT-116 colon
[2] = test system: IGROV1 ovarian
[3] = test system: K-562 leukemia
[4] = test system: NCI-H226 lung
[5] = test system: NCI-H460 lung
[6] = test system: RXF 393 renal
[7] = test system: SF-268 CNS
[8] = test system: SF-295 CNS
[9] = test system: SF-539 CNS
[10] = test system: SR leukemia

Compound	TGI [1] [nM]	TGI [2]	TGI [3]	TGI [4]	TGI [5]	TGI [6] [nM]	TGI [7] [nM]	TGI [8]	TGI [9]	GI50 [2]	GI50 [3]	GI50 [4]	GI50 [5] [nM]	GI50 [6] [nM]	GI50 [7] [nM]	GI50 [8] [nM]	GI50 [9] [nM]	TGI [10] [nM]	GI50 [1] [nM]	GI50 [10] [nM]
C=CCCCCn1c2ccccc2c2c(C)c3cnccc3c(C)c21	20900	46400 nM	16100 nM	94900 nM	39200 nM	43000	77800	26000 nM	33500 nM											
CCC1(OC(=O)CN)C(=O)OCc2c1cc1n(c2=O)Cc2cc3cc4c(cc3nc2-1)OCO4 (configuration not stated)		1550 nM and 527 nM	> 100000 nM	201 nM and 299 nM	15.9 nM and 38.9 nM	119	> 100000	21.1 nM and < 10 nM	16.1 nM and 16.5 nM	97.5 nM and 36.7 nM	51.2 nM and 22.5 nM	24 nM and < 10 nM	< 10	15.8	< 10	< 10	< 10			
COC(=O)[C@@H]1C=C[C@H](NC(C)=O)C1	> 100000	> 100000 nM	> 100000 nM	> 100000 nM	> 100000 nM	> 100000		> 100000 nM										> 100000		
Cn1c(=O)n(CC2CS2)c2ccccc21 (configuration not stated)	> 100000	> 100000 nM	> 100000 nM	> 100000 nM	> 100000 nM	> 100000	> 100000	> 100000 nM	> 100000 nM									> 100000		
CC1(C)[C@@H](OC(N)=O)C=C[C@]2(CO)[C@H]3CC[C@]4(C)[C@@H](c5ccc(=O)oc5)[C@@H](Cl)C[C@]4(O)C3=CC[C@@H]12	10.4	28.4 nM and 82.9 nM	18.8 nM and 56.2 nM	16.8 nM	1.28 nM		2.54	14.4 nM		3.13 nM and 2.5 nM	3.54 nM and 2.5 nM	4.48 nM	< 0.1		< 0.1	2.68		14.6	< 0.1	2.32
CCN(CCCl)c1cccc(NC(=O)c2ccc(C(=O)Nc3cccc(CN(C)C)c3)cc2)c1	12400	1130 nM	10900 nM		1360 nM	29.8	4870	13200 nM	611 nM									27300		
C=C(C)[C@@H]1CC[C@]2(CO)CC[C@]3(C)[C@H](CC[C@@H]4[C@@](C)(CCCN)[C@H](C(=C)C)CC[C@]43C)[C@@H]12	3020	3220 nM	4590 nM		3240 nM		3060		2990 nM	1760 nM	1550 nM		1650		1530		1630	2140	1400	475
CCN(CC)/[N+]([O-])=N/O	> 100000	> 100000 nM	> 100000 nM	> 100000 nM	> 100000 nM	> 100000	> 100000	> 100000 nM	> 100000 nM									> 100000		
